According to patent US11851391B2, “Antifungal compounds and methods of forming the same” (University of Kentucky Research Foundation, priority 2018, dated 2023):
≈ marks a conversion by molar mass, not a printed value. Like-named read-outs stand apart in the source and are kept apart here.

Legend:
[1] = tested on: C. albicans ATCC MYA-2310(S) (strain E); assay: MIC determination, in vitro antifungal assay (CLSI M27-A3); type: cell-based, Candida albicans; conditions: Candida albicans, 48 h, MIC-0, 48 h at 35° C., read-out: MIC
Protocol: (§1) The activity of N,N′-diaryl-bishydrazones 7-22 was tested against a panel of seven strains of C. albicans: ATCC 10231(R) (A), ATCC 64124(R) (B), ATCC MYA-2876(S) (C), ATCC 90819(R) (D), ATCC MYA-2310(S) (E), ATCC MYA-1237(R) (F), and ATCC MYA-1003(R) (G). The activity of these bishydrazones 7-22 was also explored against a panel of three non-albicans Candida strains: C. glabrata ATCC 2001 (H), C. krusei ATCC 6258 (I), and C. parapsilosis ATCC 22019 (J). Finally, the activity of these bishydrazones 7-22 was explored against three Aspergillus strains: A. flavus ATCC MYA-3631 (K), A. nidulans ATCC 38163 (L), and A. terreus ATCC MYA-3633 (M).
(§2) Candida albicans ATCC 10231 (A), C. albicans ATCC 64124 (B), and C. albicans ATCC MYA-2876 (C) were kindly provided by Dr. Jon Y. Takemoto (Utah State University, Logan, UT, USA). C. albicans ATCC 90819 (D), C. albicans ATCC MYA-2310 (E), C. albicans ATCC MYA-1237 (F), C. albicans ATCC MYA-1003 (G), Candida glabrata ATCC 2001 (H), Candida krusei ATCC 6258 (I), Candida parapsilosis ATCC 22019 (J), Aspergillus flavus ATCC MYA-3631 (K), and Aspergillus terreus ATCC MYA-3633 (M) were obtained from the American Type Culture Collection (ATCC; Manassas, VA, USA). Aspergillus nidulans ATCC 38163 (L) was received from Dr. Jon S. Thorson (University of Kentucky, Lexington, KY, USA). Filamentous fungi and yeasts were cultivated at 35° C. in RPMI 1640 medium (with 1-glutamine, without sodium biocarbonate, Sigma-Aldrich, St. Louis, MO) buffered to a pH of 7.0 with 0.165 M morpholinepropanesulfonic acid (MOPS) buffer (Sigma-Aldrich).
(§3) The MIC values of compounds 7a-24c against yeast cells (strains A-J) were determined in 96-well plates as described in the CLSI document M27-A3 with minor modifications. A single colony of freshly prepared yeast cells was used to inoculate 5 mL of yeast extract peptone dextrose (YPD) broth prior to incubation overnight with shaking at 200 rpm at 35° C. From the actively growing yeast culture, 100 μL were then transferred to 900 μL of sterile ddH2O and re-adjusted to achieve OD600 of 0.12 (˜1×10^6 CFU/mL). The cell suspension was further diluted to achieve 2-4×10^3 CFU/mL in RPMI 1640 medium. […] The final concentration of DMSO was ensured to be <1.25% in all experiments. The MIC values for compounds 7a-24c and CAS were defined as the minimum drug concentration that yielded complete inhibition (also known as MIC-0).

[2] = tested on: C. albicans ATCC MYA-1237(R) (strain F); assay: as above; type: cell-based, Candida albicans; conditions: Candida albicans, 48 h, MIC-0, 48 h at 35° C., read-out: MIC
Protocol: as §1, §2, §3

[3] = tested on: C. albicans ATCC 90819(R) (strain D); assay: as above; type: cell-based, Candida albicans; conditions: Candida albicans, ATCC90819, 48 h, MIC-0, 48 h at 35° C., read-out: MIC
Protocol: as §1, §2, §3

[4] = tested on: C. albicans ATCC 64124(R) (strain B); assay: as above; type: cell-based, Candida albicans; conditions: Candida albicans, ATCC64124, 48 h, strain B; MIC-0; 48 h at 35° C.; read-out: MIC
Protocol: as §1, §2, §3

[5] = tested on: Candida parapsilosis ATCC 22019 (strain J); assay: as above; type: cell-based; conditions: Lodderomyces parapsilosis, ATCC22019, 48 h, strain J; MIC-0; 48 h at 35° C.; read-out: MIC
Protocol: as §1, §2, §3

[6] = tested on: Candida albicans ATCC 10231(R) (strain A); assay: as above; type: cell-based; conditions: Candida albicans, ATCC10231, 48 h, MIC-0 (no visible growth), 48 h at 35° C., read-out: MIC
Protocol: as §1, §2, §3

[7] = tested on: Candida krusei ATCC 6258 (strain I); assay: as above; type: cell-based; conditions: Pichia kudriavzevii, ATCC6258, 48 h, MIC-0, 48 h at 35° C., read-out: MIC
Protocol: as §1, §2
(§4) A single colony of freshly prepared yeast cells was used to inoculate 5 mL of yeast extract peptone dextrose (YPD) broth prior to incubation overnight with shaking at 200 rpm at 35° C. From the actively growing yeast culture, 100 μL were then transferred to 900 μL of sterile ddH2O and re-adjusted to achieve OD600 of 0.12 (˜1×10^6 CFU/mL). The cell suspension was further diluted to achieve 2-4×10^3 CFU/mL in RPMI 1640 medium. […] The final concentration of DMSO was ensured to be <1.25% in all experiments.

[8] = tested on: Candida glabrata ATCC 2001 (strain H); assay: as above; type: cell-based; conditions: Nakaseomyces glabratus, ATCC2001, 48 h, MIC-0, 48 h at 35° C., read-out: MIC
Protocol: as §1, §2, §4

[9] = tested on: Aspergillus terreus ATCC MYA-3633 (strain M); assay: MIC determination against filamentous fungi (CLSI M38-A2); type: cell-based; conditions: Aspergillus terreus, 48 h, MIC-0, 48 h at 35° C., read-out: MIC
Protocol: as §1, §2
(§5) Similarly, the MIC values of compounds 7a-24c, as well as that of the two control drugs against filamentous fungi (strains K-M) were determined as previously described in CLSI document M38-A2. Spores were harvested from sporulating cultures growing on potato dextrose agar (PDA) by filtration through sterile glass wool and enumerated by using a hemocytometer to obtain the desired inoculum size. […] Spore suspensions were added to the wells to afford a final concentration of 5×10^5 CFU/mL. The plates were incubated at 35° C. for 48 h. The MIC values of compounds 7a-24c and CAS against filamentous fungi were based on the complete inhibition of growth when compared to the growth control (MIC-0). […] Each test was performed in triplicate.

[10] = tested on: Aspergillus nidulans ATCC 38163 (strain L); assay: as above; type: cell-based; conditions: Aspergillus nidulans, ATCC38163, 48 h, MIC-0, 48 h at 35° C., read-out: MIC
Protocol: as §1, §2, §5

[11] = tested on: Aspergillus flavus ATCC MYA-3631 (strain K); assay: as above; type: cell-based; conditions: Aspergillus flavus, 48 h, MIC-0, 48 h at 35° C., read-out: MIC
Protocol: as §1, §2, §5

[12] = tested on: C. albicans ATCC MYA-2876(S) (strain C); assay: MIC determination, in vitro antifungal assay (CLSI M27-A3); type: cell-based, Candida albicans; conditions: Candida albicans, 48 h, MIC-0, 48 h at 35° C., read-out: MIC
Protocol: as §1, §2, §4

[13] = tested on: C. albicans ATCC MYA-1003(R) (strain G); assay: as above; type: cell-based, Candida albicans; conditions: Candida albicans, 48 h, MIC-0, 48 h at 35° C., read-out: MIC
Protocol: as §1, §2, §4

[14] = tested on: various yeast strains and filamentous fungi (strains A-M); assay: Antifungal activity over the whole panel (summary of MIC data); type: cell-based, Candida and Aspergillus strains; conditions: over the fungal strains tested, based on MIC data of Table 1
Protocol: as §1, §3, §5

[15] = tested on: murine red blood cells (mRBCs); conditions: for Percentage of hemolysis (±SDEV): mouse, 60 min
Protocol: Thus, the hemolytic activity for these bishydrazones was investigated against murine red blood cells (mRBCs).
Murine red blood cells (mRBCs) were prepared by suspending 1 mL of murine blood in 3 mL of PBS prior to centrifugation at 1,000 rpm for 5 min. The mRBCs were washed four times in PBS and resuspended in the same buffer to a final concentration of 10^7 mRBC/mL. […] The tubes were incubated at 37° C. for 60 min. […] Eppendorf tubes containing 200 μL of ddH2O and 2 μL of 1% v/v Triton™ X-100 served as negative (blank) and positive controls, respectively. The percentage of hemolysis was calculated using the following equation: % hemolysis=[(absorbance of sample)−(absorbance of blank)]×100/(absorbance of positive control).

N#Cc1ccc(N/N=C/c2ccc(-c3ccc(/C=N/Nc4ccc(C#N)cc4)cc3)cc2)cc1 [Compound 13b]
MIC [1]: > 31.3 µg/mL
MIC [2]: > 31.3 µg/mL
MIC [3]: > 31.3 µg/mL
MIC [4]: > 31.3 µg/mL
MIC [5]: > 31.3 µg/mL
MIC [6]: > 31.3 µg/mL
MIC [7]: > 31.3 µg/mL
MIC [8]: > 31.3 µg/mL
MIC [9]: 31.3 µg/mL (≈ 71.1 µM)
MIC [10]: > 31.3 µg/mL
MIC [11]: > 31.3 µg/mL
MIC [12]: > 31.3 µg/mL
MIC [13]: 31.3 µg/mL (≈ 71.1 µM)
antifungal activity (in words) [14]: inactive

CC(C)Oc1ccc(N/N=C/c2ccc(-c3ccc(/C=N/Nc4ccc(OC(C)C)cc4)cc3)cc2)cc1 [Compound 16b]
MIC [1]: > 31.3 µg/mL
MIC [2]: > 31.3 µg/mL
MIC [3]: > 31.3 µg/mL
MIC [4]: > 31.3 µg/mL
MIC [5]: > 31.3 µg/mL
MIC [6]: > 31.3 µg/mL
MIC [7]: > 31.3 µg/mL
MIC [8]: > 31.3 µg/mL
MIC [9]: > 31.3 µg/mL
MIC [10]: > 31.3 µg/mL
MIC [11]: > 31.3 µg/mL
MIC [12]: > 31.3 µg/mL
MIC [13]: > 31.3 µg/mL
antifungal activity (in words) [14]: inactive

N=C(N)N/N=C/c1ccc(-c2cccc(/C=N/NC(=N)N)c2)cc1 [Compound 24a]
MIC [1]: 3.9 µg/mL (≈ 12.1 µM)
MIC [2]: 7.8 µg/mL (≈ 24.2 µM)
MIC [3]: > 31.3 µg/mL
MIC [4]: 3.9 µg/mL (≈ 12.1 µM)
MIC [5]: 1.95 µg/mL (≈ 6.05 µM)
MIC [6]: 1.95 to 3.9 µg/mL (≈ 6.05 to 12.1 µM)
MIC [7]: 1.95 µg/mL (≈ 6.05 µM)
MIC [8]: 3.9 µg/mL (≈ 12.1 µM)
MIC [9]: 7.8 µg/mL (≈ 24.2 µM)
MIC [10]: 7.8 µg/mL (≈ 24.2 µM)
MIC [11]: > 31.3 µg/mL
hemolytic activity (in words) [15]: lack of hemolytic activity
Percentage of hemolysis (±SDEV) ([15]; 0.975 μg/mL): 0%
Percentage of hemolysis (±SDEV) ([15]; 1.95 μg/mL): 1.1 ± 2.2%
Percentage of hemolysis (±SDEV) ([15]; 3.9 μg/mL): 1.2 ± 1.7%
Percentage of hemolysis (±SDEV) ([15]; 7.8 μg/mL): 2.3 ± 0.5%
Percentage of hemolysis (±SDEV) ([15]; 15.6 μg/mL): 3.8 ± 0.5%
Percentage of hemolysis (±SDEV) ([15]; 31.3 μg/mL): 3.8 ± 1.7%
MIC [12]: 3.9 µg/mL (≈ 12.1 µM)
MIC [13]: > 31.3 µg/mL
